Measured values taken from US5032505A, “Inhibitors for glycosaminosyl transferase V” (Chembiomed, Ltd., priority 1988, dated 1991).

How the values were obtained:
GnT-V [1] = target: T1, GnT-V (Mesocricetus auratus, UniProt A0A1U8C8T3); experiment: GnT-V acceptor assay (transfer of GlcNAc from UDP-GlcNAc to synthetic acceptor); type: biochemical
T1 sequence (A0A1U8C8T3 1-740): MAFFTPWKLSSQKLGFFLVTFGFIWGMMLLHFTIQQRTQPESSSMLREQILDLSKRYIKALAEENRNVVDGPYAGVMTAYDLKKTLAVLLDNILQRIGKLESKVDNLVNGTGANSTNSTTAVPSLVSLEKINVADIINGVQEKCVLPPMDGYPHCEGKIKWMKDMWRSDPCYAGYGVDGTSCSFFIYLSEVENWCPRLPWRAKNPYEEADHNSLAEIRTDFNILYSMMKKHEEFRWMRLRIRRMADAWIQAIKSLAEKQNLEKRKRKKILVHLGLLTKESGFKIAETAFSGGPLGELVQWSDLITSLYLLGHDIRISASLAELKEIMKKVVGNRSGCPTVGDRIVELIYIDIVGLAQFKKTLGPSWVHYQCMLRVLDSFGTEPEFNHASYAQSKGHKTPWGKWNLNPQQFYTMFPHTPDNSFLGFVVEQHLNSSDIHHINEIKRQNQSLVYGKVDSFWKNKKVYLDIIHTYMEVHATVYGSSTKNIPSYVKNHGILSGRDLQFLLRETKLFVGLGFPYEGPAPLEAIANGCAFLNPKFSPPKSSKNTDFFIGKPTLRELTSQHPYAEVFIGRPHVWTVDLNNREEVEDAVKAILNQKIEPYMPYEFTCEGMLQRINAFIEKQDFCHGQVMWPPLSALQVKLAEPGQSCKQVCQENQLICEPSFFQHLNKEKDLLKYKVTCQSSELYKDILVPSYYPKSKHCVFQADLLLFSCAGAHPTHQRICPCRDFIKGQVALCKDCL
Method: One form of the assay is conducted by measuring the uptake of beta-GlcNAc from UDP-beta GlcNAc in the presence of the test extract by the acceptors of the invention. A variety of protocols to detect this uptake can be employed, including, for example, conjugation of the acceptor to a solid support and measuring the uptake of labeled beta-GlcNAc. An illustrative procedure is set forth, using as acceptor the trisaccharide 8-methoxycarbonyl octyl beta-GlcNAc(1-2)alpha-Man(1-6)beta-Man, in Pierce, M., et al, Biochem Biophys Res Commun (1987) 146:679-684, incorporated herein by reference. This procedure uses radiolabeled UDP-beta GlcNAc to provide a detection means for uptake of the substrate. Other protocols for measuring GnT-V using the acceptors of the invention can be adapted, for example, from the procedure used to measure the levels of GnT-V acceptor in EPO published application 134,292 to Abbott Laboratories.
The procedure for assaying GnT-V activity is described in Tahir, S.H., et al, Can J Chem (1986) 64:1771, cited above, and incorporated herein by reference. This procedure is also described in Palcic, M. M., et al, Glycoconjugate J (1988) 5:49, and in Hindsgual, O., et al, Carbohydrate Res (1988) 173:263, both incorporated herein by reference. The latter two citations describe the results of this assay using various synthetic acceptors.

GnT-V [2] = target: T1, GnT-V; details: as acceptor for GnT-V; Palcic reference; read-out: apparent Km; cited from earlier work
B16 melanoma = details: literature; cited from earlier work
MDAY-D2 lymphoma cells = details: literature; cited from earlier work
tumor cells [3] = details: literature; cited from earlier work
tumor cells [4] = details: literature; cited from earlier work; remark: listed apart in the source

## CCCCCCCCO[C@@H]1O[C@H]([C@@H](C)O[C@H]2O[C@H](CO)[C@@H](O)[C@H](O)[C@@H]2O[C@@H]2O[C@H](CO)[C@@H](O)[C@H](O)[C@H]2NC(C)=O)[C@@H](O)[C@H](O)[C@H]1O
GnT-V [1]; as acceptor, assay of the Pierce reference
  Vmax relative to the unmethylated analog: three times that of the unmethylated analog

## COC(=O)CCCCCCCCO[C@@H]1O[C@H](CO[C@H]2O[C@H](CO)[C@@H](O)[C@H](O)[C@@H]2O[C@@H]2O[C@H](CO)[C@@H](O)[C@H](O)[C@H]2NC(C)=O)[C@@H](O)[C@H](O)[C@@H]1O [8-methoxycarbonyloctyl 6-O-[2-O-(2-acetamido-2-deoxy-beta-D-glucopyranosyl)-alpha-D-mannopyranosyl]-beta-D-mannopyranoside]
GnT-V [2]
  Km: 80 µM

## CC(=O)N[C@H]1[C@H](O[C@@H]2[C@@H](OCC3CCCCC3)O[C@H](CO)[C@@H](O)[C@@H]2O)O[C@H](CO)[C@@H](O)[C@@H]1O [Cyclohexylmethyl 6-O-[2-O-(2-acetamido-2-deoxy-beta-D-glucopyranosyl)-alpha-D-mannopyranoside]]
GnT-V [1]; relative to the other five octyl trisaccharide acceptors
  ability to act as an acceptor, relative to the remaining compounds: about 25%

## COC(=O)CCCCCCCCO[C@@H]1O[C@H](CO[C@H]2O[C@H](CO)[C@@H](O)[C@H](O)[C@@H]2O)[C@@H](O)[C@H](O[C@H]2O[C@H](CO)[C@@H](O)[C@H](O)[C@@H]2O)[C@@H]1O [GnT-1 Acceptor]
Lec8 CHO Cells
  entry into cells: has entered the cells to some extent after 3 hr and to a greater extent after 6

## O[C@H]1[C@H](O)[C@@H](O)CN2CC[C@H](O)[C@H]12 [castanospermine]
B16 melanoma
  organ colonization by B16 melanoma: inhibit organ colonization by B16 melanoma

## CCCCCCCCO[C@@H]1O[C@H]([C@H](C)O[C@H]2O[C@H](CO)[C@@H](O)[C@H](O)[C@@H]2O[C@@H]2O[C@H](CO)[C@@H](O)[C@H](O)[C@H]2NC(C)=O)[C@@H](O)[C@H](O)[C@H]1O [proS methylated compound]
GnT-V [1]; compared with the proR methylated compound
  effectiveness as an acceptor: less effective as an acceptor

## O[C@H]1[C@H]2[C@H](O)CCCN2C[C@H]1O [swainsonine]
B16 melanoma
  organ colonization by B16 melanoma: inhibit organ colonization by B16 melanoma
MDAY-D2 lymphoma cells
  colonization by metastatic MDAY-D2 lymphoma cells: inhibit colonization by metastatic MDAY-D2 lymphoma cells
Tumor cells [3]
  tumor cell growth rate in soft agar: reduce tumor cell growth rate in soft agar
Tumor cells [4]
  susceptibility of tumor cells to natural killer cells: enhance susceptibility of tumor cells to natural killer cells

## tunicamycin
B16 melanoma
  organ colonization by B16 melanoma: inhibit organ colonization by B16 melanoma
